The subject of one series is Enrlich carcinoma. Kind of series: Antineoplastic activity against Enrlich carcinoma (life prolongation rate). Particulars: for response vs control in vivo at 16 mg/kg: Mus musculus, ip, 1440 h, read-out: Life prolongation rate (T/C %). It counts as in vivo, 5-week-old ICR mice (male).
For series [1] the following is noted: intraperitoneal, once a day, 7 days, mice.
For series [2], the system named is Salmonella typhimurium TA-98. Kind of series: Antimutagenic activity, Ames method, against mutagenic action of benzpyrene. It counts as cell-based. Particulars: with B(α)P and S-9 mix. The method, then: The antimutagenic activity was examined according to the Ames method by using Salmonella typhimurium TA-98 as test bacterium and Benzo(α)pyrene (B(α)P) as (TA-98) mutagen.
To a solution of 5 μg of B(α)P and a proper amount of a compound of this invention in 0.1 ml of DMSO were added 0.5 ml of S-9 mix and 0.1 ml of a TA-98 suspension, and the mixture was subjected to preincubation at 37° C. for 20 minutes.
This preincubated mixture was further added with 2 ml of soft agar, and after sufficient mixing, the mixture was uniformly spread on a gluclose minimum agar medium plate and incubated at 37° C. for 48 hours. Thereafter, the number of the colonies produced by reverse mutation was counted.
The number of the colonies existing in the medium containing neither B(α)P nor the compound of this invention was given as background.
The antimutagenic activity was determined as a mutation inhibition rate from the following formula: [formula]

A short description of a further series: in vivo. Particulars: mouse, ip, LD50, intraperitoneal, once a day, 7 days, mice.
Where [3] appears, read: 2.0 mg/kg/day, intraperitoneal, once a day, 7 days.
[4] abbreviates: 4.0 mg/kg/day, intraperitoneal, once a day, 7 days.
Where [5] appears, read: 8.0 mg/kg/day, intraperitoneal, once a day, 7 days.

Where “and” joins values, the source holds several entries; their conditions need not be identical. Identical values can stand only once. Like-named read-outs stand apart in the source and are kept apart here. Where only a bound is given, the exact number is not on record here.

Method for Enrlich carcinoma: Approximately 10^6 cells/0.2 ml of Enrlich carcinoma were inoculated into the abdominal cavity of each of the 5-week-old ICR mice (male) used for the test, and the test compounds were administered intraperitoneally to the mice of the treated group once a day for a period of 7 days, starting from the day after said inoculation. The mice of the control group was administered with a saline solution in the same way. Observation of the animals of both groups was continued for 60 days after the administration, and the life prolongation rate (T/C%, T/C×100) was determined from the average duration (days) of life of the mice of the treated group (T) and that of the mice of the control group (C).

For `Cn1cnc2ccccc21` [Compound 1-40, Selenium oxychloride-N-methylbenzimidazole (1:1) complex], the “Life prolongation rate (T/C %)” value in the series on Enrlich carcinoma (setting [3]) is reported as 214%; with Enrlich carcinoma (setting [4]) it was 230%; in the series with Enrlich carcinoma (setting [5]), 243%. In the series on Enrlich carcinoma (intraperitoneal, (Note 2) administered for 2 days), the response vs control in vivo at 16 mg/kg was found to be 123%. For the same compound, the LD50 in series [1] is 8-16 mg/kg/day × 7.

For the compound `c1ccc(-c2ccccn2)nc1` [Compound 1-41, Selenium oxychloride-2,2'-dipyridyl (1:1) complex], the “Life prolongation rate (T/C %)” value with Enrlich carcinoma (setting [3]) worked out at 230%; in the series on Enrlich carcinoma (setting [4]) it was 237%; in the series on Enrlich carcinoma (setting [5]) it was 312%. Moreover, the “Inhibition rate (mutation inhibition rate)” value in series [2] (0.5 μg/plate) is listed as 22.6; in series [2] (1 μg/plate) it was 24.2; in series [2] (5 μg/plate), 33.6; in series [2] (10 μg/plate), 56.2; in series [2] (50 μg/plate) it was 67.5; in series [2] (100 μg/plate), 76.2. Also, the “Inhibition rate (mutation inhibition rate)” value in series [2] (500 μg/plate) was 100. The Number of colonies in series [2] (0.5 μg/plate) worked out at 238; in series [2] (1 μg/plate), 234; in series [2] (5 μg/plate), 209; in series [2] (10 μg/plate), 149; in series [2] (50 μg/plate), 119; in series [2] (100 μg/plate) it was 96. For the same compound, the Number of colonies in series [2] (500 μg/plate) was 16. The compound also gave an LD50 in “in vivo” of 8 to 16 mg/kg.

As for `c1ccncc1` [Compound 2-1, Tetrabromoselenium-pyridine (1:2) complex], in the series on Enrlich carcinoma (mouse, in vivo), the “Life prolongation rate (T/C %)” value was 185% and 171% and 222% and 146%. Also, the LD50 in series [1] is reported as > 16 mg/kg/day × 7.

As to `c1ccc(-c2ccccn2)nc1` [Compound 2-13, Tetrachloroselenium-2,2'-dipyridinyl (1:2) complex], the “Life prolongation rate (T/C %)” value in the series with Enrlich carcinoma (setting [3]) was found to be 152%; in the series with Enrlich carcinoma (setting [4]), 180%; in the series on Enrlich carcinoma (setting [5]), 185%. In the series with Enrlich carcinoma (intraperitoneal, (Note 5) administered for 6 days), the response vs control in vivo at 16 mg/kg was determined as 97%. In series [1], the LD50 was > 16 mg/kg/day × 7.

Source of the values: patent US4824955A, “Selenium oxy chloride-pyridine or bipyridine complexes” (Nippon Kayaku Kabushiki Kaisha, priority 1985, dated 1989).
